From patent publication US9006191B2, “Silencing of polo-like kinase expression using interfering RNA” (Protiva Biotherapeutics, Inc., priority 2007, dated 2015)

What was measured:
mouse KSP mRNA [1] = test: 5′ RACE-PCR in Neuro2a cells; format: cell-based; conditions: 24 h
Procedure: (A) HT29 cells were treated with 10 nM SNALP-formulated PLK1424, Luc siRNA or PBS. RNA was isolated 24 hours after transfection and assayed for the specific PLK-1 mRNA cleavage product by 5′-RACE-PCR. (B) Neuro2a cells were treated with SNALP-formulated KSP2263, PLK773 siRNA or PBS. RNA was isolated 24 hours after transfection and assayed for the specific mouse KSP mRNA cleavage product by 5′-RACE-PCR.
The detection of specific RNA cleavage products generated by RISC-mediated hydrolysis of target mRNA is the definitive marker confirming RNAi as the mechanism of gene silencing (39, 40). Activated RISC cleaves target mRNA precisely between the nucleotides complementary to positions 10 and 11 of the siRNA AS strand generating an mRNA cleavage product that is unique to the siRNA sequence. This can be detected in cells using an appropriately designed 5′-rapid amplification of cDNA ends-PCR method (RACE-PCR). We developed RACE-PCR assays to detect the PLK1424-specific cleavage product of human PLK-1 mRNA and the KSP2263-specific cleavage product of mouse KSP mRNA.
(§1) 5′ RNA Ligase Mediated Rapid Amplification of cDNA ends (5′ RLM RACE).

IFIT1 mRNA, serum IFNα [2] = test: In vivo immune stimulation assay in Balb/c mice (IFIT1 mRNA, serum IFNα); conditions: SNALP-formulated siRNA IV, 4 h
Neuro2a tumors = test: Hepatic Neuro2a tumor histology (H&E, quantitative); format: in vivo, mouse
Procedure: Hepatic Neuro2a tumor histology 24 h after a single intravenous administration of (A) Luc-U/U or (B) KSP2263-U/U siRNA formulated in SNALP (2 mg/kg siRNA). Images are at 200× magnification and representative of tumors from at least 6 individual mice. […] (C) Quantitative histology of H&E stained tumor tissues from mice treated with SNALP-formulated KSP2263-U/U at 4, 2, 1, or 0.5 mg/kg siRNA. Tumor cells with condensed chromatin structures were scored positive and calculated as a % of total tumor cells taken from 10 fields of view. Positive cells included aberrant and typical mitotic and apoptotic figures. Values are mean+SD of 3 mice. Mean SNALP particle size and (polydispersity) were 88 (0.07) and 82 (0.08) nm for KSP2263 and Luc, respectively.
Histology. Tumors were harvested from mice 24 h after siRNA administration and fixed directly in 10% buffered formalin. Tissues were then processed as paraffin embedded tissue sections and stained with Hematoxylin and Eosin using conventional histological techniques. Quantitative analysis of stained sections was performed by counting the number of mitotic/apoptotic cells displaying condensed chromatin structures as a percentage of total tumor cells. Values for each tumor were derived from means of 10 fields of view at 400× magnification.

mouse KSP mRNA [3] = test: 5′ RACE-PCR of hepatic Neuro2a tumors; format: in vivo
Source text: as §1

HeLa cells = test: Monoastral spindle formation in HeLa cells; format: cell-based, human; conditions: 20 nM, 16 h
Procedure: HeLa cells were treated for 16 h with (A) Luc or (B) KSP2263 siRNA at 20 nM then immunostained for α-tubulin (FITC). DNA was stained with DAPI and flourescent images captured and overlayed.

Neuro2a liver tumors = test: Intrahepatic Neuro2a tumor model (survival); format: in vivo, mouse; conditions: A/J mice, hepatic Neuro2a tumors, 4 mg/kg Q3d x5
Procedure: PLK1424-2/A treatment confers significant survival advantages in scid/beige mice bearing hepatic Hep3B tumors. Mice were administered SNALP-formulated PLK1424-2/A (n=15) or Luc-U/U (n=8) at 6×2 mg/kg, intravenous twice weekly (d 10 to d 28). (A) Body weights (mean+SD) over the dosing period expressed as % of initial weight on d 10. (B) Kaplan-Meier plot of days to euthanization due to tumor burden. […] (p=0.03, Log-rank Mantel Cox test). (C) Residual hepatic Hep3B tumor burden in mice 24 h after final administration of PLK1424-2/A siRNA (5×2 mg/kg siRNA on d 8, 11, 14, 18 & 21). Bars represent hGAPDH mRNA/mg liver of individual mice (mean+/−SD of triplicate analyses) determined by human-specific bDNA assay (No tumor=livers from non-tumor seeded mice). […]
Intrahepatic tumor models. […] Mice were allowed to recover from anaesthesia in a sterile cage and monitored closely for 2-4 h before being returned to conventional housing.
Eight to 11 days after tumor implantation, mice were randomized into treatment groups. siRNA SNALP formulations or PBS vehicle control were administered by standard intravenous injection via the lateral tail vein, calculated on a mg siRNA/kg basis according to individual animal weights (10 mL/kg injection volume). Body weights were then monitored throughout the duration of the study as an indicator of developing tumor burden and treatment tolerability. […]

IFIT1 mRNA, serum IFNα [4] = conditions: mouse, in vivo, iv
Hep3B liver tumors = test: Intrahepatic Hep3B tumor model (survival, body weight, tumor burden); format: in vivo; conditions: scid/beige mice, 2 mg/kg IV twice weekly for 3 weeks
Procedure: SNALP containing PLK-1 siRNA (“1:57” SNALP formulation: 1.4% PEG-cDMA; 57.1% DLinDMA; 7.1% DPPC; and 34.3% cholesterol) were tested for their effects on the survival of […] mice bearing Hep3B liver tumors.
Intrahepatic tumor models. Liver tumors were established in mice by direct intrahepatic injection of Hep3B or Neuro2a tumor cells (45). Female scid/beige mice (Charles River Laboratories) and male A/J mice (Jackson Laboratories) were used as hosts for the Hep3B and Neuro2a tumors, respectively. Animals received Anafen by SC injection immediately prior to surgery. Individual mice were anaesthetized by isoflourane gas inhalation and eye lube applied to prevent excessive eye drying. While maintained under gas anaesthesia, a single 1.5 cm incision across the midline was made below the sternum and the left lateral hepatic lobe exteriorized. 1×10^6 Hep3B cells or 1×10^5 Neuro2a cells suspended in 25 μL PBS were injected slowly into the lobe at a shallow angle using a Hamilton syringe and 30G needle. A swab was then applied to the puncture wound to stop any bleeding prior to suturing. Mice were allowed to recover from anaesthesia in a sterile cage and monitored closely for 2-4 h before being returned to conventional housing.
Eight to 11 days after tumor implantation, mice were randomized into treatment groups. siRNA SNALP formulations or PBS vehicle control were administered by standard intravenous injection via the lateral tail vein, calculated on a mg siRNA/kg basis according to individual animal weights (10 mL/kg injection volume). Body weights were then monitored throughout the duration of the study as an indicator of developing tumor burden and treatment tolerability. For efficacy studies, defined humane endpoints were determined as a surrogate for survival. Assessments were made by qualified veterinary technicians based on a combination of clinical signs, weight loss, and abdominal distension to define the day of euthanization due to tumor burden.
Measurement of human PLK-1 and GAPDH mRNA in tumor tissues. Tumors were harvested directly into RNALater and stored at 4° C. until processing. 100 mg tumor tissue was homogenized in Tissue and Lysis Solution (EpiCentre Biotechnologies) containing […] proteinase K (EpiCentre) in a Fastprep tissue homogenizer followed by incubation in a 65° C. waterbath for 15 min and centrifuged to clarify lysates. mRNA analysis in FIG. 33B was performed on purified RNA isolated according the 5′-RACE-PCR protocol. Human PLK-1 and GAPDH mRNA were measured in tumor lystes by the QuantiGene bDNA assay (Panomics) as per the manufacturer's instructions (Quantigene 1.0 Manual). […] Data were expressed as mean PLK-1:GAPDH ratio+/−SD of individual animals. Tumor burden was assessed by homogenizing the complete liver from tumor bearing mice and measuring the total hGAPDH signal (RLU's) within the liver. Values were expressed as hGAPDH RLU/mg total liver.

PLK-1 mRNA = test: 5′ RACE-PCR of Hep3B liver tumors; format: in vivo, human; conditions: hepatic Hep3B tumors, single 2 mg/kg IV dose
Source text: as §1

Substance | KSP mRNA cleavage product by 5′ RACE-PCR (mouse KSP mRNA [1]) | IFIT1 mRNA induction in liver and spleen (IFIT1 mRNA, serum IFNα [2]) | Neuro2a tumor histology (aberrant mitotic figures) (Neuro2a tumors; 24 h after SNALP administration) | tumor cells with condensed chromatin structures, % of total tumor cells (Neuro2a tumors; 24 h post siRNA treatment) [%] | RNAi-mediated KSP mRNA cleavage by RACE-PCR (mouse KSP mRNA [3]) | monoastral spindle phenotype (HeLa cells) | median survival time (Neuro2a liver tumors) [days] | serum IFNα / serum cytokine response (IFIT1 mRNA, serum IFNα [4]) | median survival time (Hep3B liver tumors) [days] | time until first euthanization (Hep3B liver tumors; days after tumor seeding) [days] | specific cleavage product of PLK-1 mRNA by 5′ RACE-PCR (PLK-1 mRNA)
KSP2263-U/U: 2′OMe-modified KSP2263 duplex, SEQ ID NO:227/229 (chain 1 CNGAAGACCNGAAGACAANTT; chain 2 AUUGUCUNCAGGNCUNCAGTT; siRNA; 2'-O-methyl modifications at selected positions, key for n not given here) | predicted 102 bp RACE-PCR product was amplified | no measurable IFNα or increase in IFIT1 mRNA in the liver or spleen | significant numbers of tumor cells with aberrant mitotic figures typical of monoastral and apoptotic cells | ~13 | confirmed the specific induction of RNAi-mediated KSP mRNA cleavage within tumors | induced the distinct monoastral nuclear phenotype in vitro | 28 | no measurable IFNα | – | – | –
Luc-U/U: control 2′OMe siRNA targeting luciferase, SEQ ID NO:233/234 (chain 1 GANUANGNCCGGNNANGNAUU; chain 2 UACANAACCGGACANAANCUU; 2'-O-methyl modifications at selected positions, key for n not given here) [reference compound] | – | no measurable IFNα or increase in IFIT1 mRNA in the liver or spleen | – | – | – | – | – | no measurable IFNα | 32 | 28 | not evident
